Like-named read-outs stand apart in the source and are kept apart here.
What was measured:
[1] = test system: primary human neutrophils; experiment: Generation of reactive oxygen species by fMLP-activated neutrophils (luminol-enhanced chemiluminescence); type: cell-based; settings: Neutrophil
Text: Neutrophil activation can be measured by quantitation of ROS generated in vitro. Measurement of ROS allows specific quantitation of a pro-inflammatory species and is also a general measure of neutrophil activation. The most sensitive method for measuring the production of ROS by neutrophils is luminol-enhanced chemiluminescence. […] The assay system used to evaluate the ability of compounds to inhibit ROS generation in neutrophils is indicative of anti-inflammatory activity that may be efficacious in disease states including but not limited to rheumatoid arthritis and inflammatory bowel disease.
Freshly isolated primary human neutrophils (5×10^6 cells/mL) were incubated with the required concentrations of compound or vehicle for 30 minutes at 37° C. in HBSS buffer (pH 7.4) containing Ca^2+. 100 nM wortmannin was used as a positive control. Aliquots of each sample were transferred to a microtitre plate to which luminol (1 μM); obtained from Sigma; Catalogue No. A8511 is added. Activation of the neutrophils was immediately initiated by addition of (1 μM) fMLP; obtained from Sigma, Catalogue No. F3506. Light output from each well was recorded for 30 minutes in a microplate luminometer. Total light output (integral of the time-course) was determined for each well. Inhibitory activities of test drugs against neutrophil ROS generation is expressed as percentage activity relative to a no drug control (100% activation or generation of ROS) containing 0.25% DMSO. Concentration of test compound required to inhibit the generation of ROS to 50% of control values (IC50's) were determined from concentration-response curves by non-linear regression analysis.

[2] = molecular target: T1, cAMP phosphodiesterase 3 from human platelets (Homo sapiens, UniProt Q14432); experiment: Inhibition of cAMP phosphodiesterase 3 from human platelets; type: biochemical; settings: PDE3, platelet cell extract, X marks this range
T1 construct: from tissue; host or cells: human platelets, cytoplasmic extract
T1 sequence (Q14432 whole entry): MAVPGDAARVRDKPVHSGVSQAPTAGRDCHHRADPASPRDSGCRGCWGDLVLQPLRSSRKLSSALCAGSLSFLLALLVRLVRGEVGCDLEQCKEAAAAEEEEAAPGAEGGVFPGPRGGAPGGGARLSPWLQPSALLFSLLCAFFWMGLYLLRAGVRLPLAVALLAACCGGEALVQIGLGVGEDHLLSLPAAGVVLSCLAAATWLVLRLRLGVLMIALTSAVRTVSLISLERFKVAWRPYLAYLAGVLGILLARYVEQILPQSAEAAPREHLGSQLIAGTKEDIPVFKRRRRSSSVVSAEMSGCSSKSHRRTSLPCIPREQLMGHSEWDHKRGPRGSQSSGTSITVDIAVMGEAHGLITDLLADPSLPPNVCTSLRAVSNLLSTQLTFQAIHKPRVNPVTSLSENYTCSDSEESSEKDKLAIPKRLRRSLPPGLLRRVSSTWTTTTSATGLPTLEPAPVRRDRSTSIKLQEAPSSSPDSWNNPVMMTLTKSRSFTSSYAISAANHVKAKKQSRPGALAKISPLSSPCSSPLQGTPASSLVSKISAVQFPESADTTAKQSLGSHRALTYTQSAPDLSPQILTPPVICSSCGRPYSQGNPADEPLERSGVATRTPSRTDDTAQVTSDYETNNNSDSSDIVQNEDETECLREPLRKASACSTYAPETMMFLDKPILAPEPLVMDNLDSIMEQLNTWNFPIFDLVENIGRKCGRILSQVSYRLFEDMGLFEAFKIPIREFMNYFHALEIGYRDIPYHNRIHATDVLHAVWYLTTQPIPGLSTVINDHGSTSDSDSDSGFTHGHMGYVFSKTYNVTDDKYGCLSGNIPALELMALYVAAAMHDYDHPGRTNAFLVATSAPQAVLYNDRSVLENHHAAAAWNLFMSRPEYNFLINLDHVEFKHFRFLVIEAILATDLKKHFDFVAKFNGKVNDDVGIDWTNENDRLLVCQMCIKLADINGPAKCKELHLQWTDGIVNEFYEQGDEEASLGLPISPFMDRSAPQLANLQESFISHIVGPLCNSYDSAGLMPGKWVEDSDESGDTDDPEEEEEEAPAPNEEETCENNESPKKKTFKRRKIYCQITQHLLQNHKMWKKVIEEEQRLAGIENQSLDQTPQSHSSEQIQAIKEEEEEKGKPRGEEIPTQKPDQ
Text: Compound 12 was screened for activity against 5 of the major classes of mammalian cyclic nucleotide phosphodiesterase (termed PDE 1 through 5). PDE's 1 through 4 utilize cAMP as substrate while PDE 5 uses cGMP. The broad specificity PDE inhibitor 3-isobutyl-1-methylxanthine (IBMX; Sigma; Catalogue No. 17018)) was used as a positive control in all assays. PDE's for the various assays were partially purified from the following cells/tissues; PDE 1 (bovine heart), PDE 2 (human platelets), PDE 3 (human platelets), PDE 4 (human promonocytic U937 cells) and PDE 5 (human platelets).
Platelet cell extracts were prepared as described above for the U937 cells. The PDE3 assay was performed using platelet cell extract as described above for the PDE 4 assay. Platelets contain PDE 2, 3 and 5. However PDE2 and 5 preferentially utilize cGMP, so in an assay with cAMP as a substrate they are not detected.

[3] = test system: High Affinity Rolipram Binding Site of PDE4 in Mouse Brain; experiment: Displacement of [3H]-rolipram from its high affinity binding site (HARBS); settings: ratio of IC50 for PDE4 catalytic activity to concentration displacing 50% of rolipram from HARBS
Description: Suspension was centrifuged twice at 30,000×G at 4° C. and the supernatant discarded. The pellet was resuspended in buffer, and adjusted to a protein concentration of 0.5 mg/mL. Drugs to be tested were dissolved in DMSO and pipetted in triplicate into a 96 well microplate at concentrations ranging from 1 to 30,000 nM. […] The plate was incubated at 4° C. for 1 hour. Contents of the plate were aspirated through a Whatman GF/C filterplate, and rinsed with 4×200 μL ice-cold buffer. […] Triplicate determinations were performed at each concentration.

[4] = test system: cAMP response element luciferase activity in human U937 monocytic cells; experiment: Potentiation of forskolin-induced CRE-luciferase activity in U937 cells; type: cell-based; settings: U-937, U937 cells co-incubated with 10 μM forskolin, 4 hours, X marks this range
Description: Compounds of the present invention were thereby shown to provide potentiated luciferase expression in U937 cells treated with the adenylyl cyclase activator forskolin.
Human pro-monocytic U937 cells were maintained in RPMI medium containing 10% FCS and 2 mM […]. U937 cells were transiently transfected as described in Biotechniques Vol. 17(6):1058, 1994. Briefly, cells were grown in medium containing serum to a density of 5×10^6 cells/mL and then resuspended in media containing serum at a density of approximately 1×10^7 cells/mL. 400 μL of cells were transferred into the electroporation cuvette containing 10 μg of the reporter vector (PCRE-luc) in a volume of 40 μL H2O. Reporter vector DNA was prepared from DH5α E. coli using the DNA […] free kit (Qiagen) as per manufacturers instructions. U937 cells were clectroporated at room temperature using a BIORAD electroporator. Capacitance was set to 1050 μF and voltage was 280V. The time constant was noted after each electroporation. Cells were then diluted in 4 mL of media and serum and 200 μL of cells were plated per well. Cells were allowed to recover for 16-18 hours. Cells were then treated with a test compound or vehicle in the presence or absence of 10 μM forskolin for 4 hours at 37° C.
The luciferase assay was performed as per manufacturers instructions (Tropix). Briefly, cells were centrifuged for 4 minutes at 1200 rpm and media supernatant was removed. Cell pellets were lysed in 15 μL Lysis buffer (Tropix). Luciferase assay was performed using 10 μL of cell lysate with 10 μL of buffer A and 25 μL buffer B. Luciferase activity was obtained using a luminometer with a 5-second delay followed by a read time of 10 seconds.

[5] = read-out: IC50 RANGE (μM) <1, ROS production, X marks this range
[6] = read-out: IC50 range (μM) 10-100
[7] = read-out: EC50 range (μM) 0.1-1
[8] = read-out: IC50 RANGE (μM) >100, ROS production, X marks this range
[9] = ROS production, X marks this range, read-out: IC50 RANGE (μM) 1-10

| SMILES | IC50 [1, 5] | IC50 [2, 6] | PDE4:HARBS [3] | EC50 ([4]; read-out: EC50 range (μM) 1-25) | IC50 [2] | EC50 [4, 7] | IC50 ([1]; ROS production, X marks this range, read-out: IC50 RANGE (μM) 10-100) | IC50 [1, 8] | IC50 [1, 9] | EC50 ([4]; read-out: EC50 range (μM) >25) |
| --- | --- | --- | --- | --- | --- | --- | --- | --- | --- | --- |
| COc1ccc([C@H]2COC(=O)C(Cc3ccc(OC)c(OCc4ccccc4)c3)C2)cc1OC (stereo partly drawn) [Compound 135] | < 1 µM | 10 to 100 µM | <1 | 1 to 25 µM | – | – | – | – | – | – |
| COc1ccc([C@@H]2CCC(=O)OC2)cc1OCC1CCC1 [Compound 157] | < 1 µM | – | >1 | – | > 100 µM | 0.1 to 1 µM | – | – | – | – |
| COc1ccc([C@@H]2CCC(=O)NC2)cc1OC1CCCC1 [Compound 58] | < 1 µM | – | >1 | – | > 100 µM | 0.1 to 1 µM | – | – | – | – |
| COc1ccc([C@@H]2CCC(=O)NC2)cc1OC [Compound 46] | – | – | >1 | 1 to 25 µM | > 100 µM | – | 10 to 100 µM | – | – | – |
| COc1ccc([C@H]2COC(=O)C(Cc3ccc(OCc4ccccc4)c(OCc4ccccc4)c3)C2)cc1OC (stereo partly drawn) [Compound 79] | – | – | <1 | – | > 100 µM | 0.1 to 1 µM | – | > 100 µM | – | – |
| COc1ccc([C@H]2COC(=O)C(Cc3cccc(N)c3)C2)cc1OC1CCCC1 (stereo partly drawn) [Compound 184] | < 1 µM | – | >1 | 1 to 25 µM | > 100 µM | – | – | – | – | – |
| COc1ccc([C@H]2COC(=O)C(Cc3ccc(O)c(N)c3)C2)cc1OC1CCCC1 (stereo partly drawn) [Compound 94] | < 1 µM | – | >1 | – | > 100 µM | 0.1 to 1 µM | – | – | – | – |
| CCCOc1cc(C2CCC(=O)OC2)ccc1OC (stereo not drawn) [Compound 154] | < 1 µM | – | >1 | 1 to 25 µM | – | – | – | – | – | – |
| COc1ccc(CC2(Cc3ccc(OC)c(O)c3)C[C@@H](c3ccc(OC)c(OC4CCCC4)c3)COC2=O)cc1O [Compound 181] | – | – | <1 | – | > 100 µM | – | – | – | 1 to 10 µM | > 25 µM |
| COc1cc(CC2C[C@@H](c3ccc(OC)c(OC4CCCC4)c3)CNC2=O)ccc1OCc1ccccc1 (stereo partly drawn) [Compound 61] | – | 10 to 100 µM | <1 | 1 to 25 µM | – | – | – | > 100 µM | – | – |
| COc1ccc([C@H]2COC(=O)C(Cc3ccc(O)c(O)c3)C2)cc1OC (stereo partly drawn) [Compound 80] | < 1 µM | 10 to 100 µM | – | 1 to 25 µM | – | – | – | – | – | – |
| CCOc1cc(C2CCC(=O)OC2)ccc1OC (stereo not drawn) [Compound 153] | < 1 µM | – | >1 | 1 to 25 µM | – | – | – | – | – | – |
| COc1ccc(CC2C[C@@H](c3ccc(OC)c(OC)c3)COC2=O)cc1 (stereo partly drawn) [Compound 132] | – | 10 to 100 µM | <1 | 1 to 25 µM | – | – | – | > 100 µM | – | – |
| COc1ccc([C@H]2COC(=O)C(Cc3ccccc3)C2)cc1OC1CCCC1 (stereo partly drawn) [Compound 168] | < 1 µM | – | <1 | 1 to 25 µM | > 100 µM | – | – | – | – | – |
| COc1ccc([C@H]2COC(=O)C(Cc3ccccc3[N+](=O)[O-])C2)cc1OC1CCCC1 (stereo partly drawn) [Compound 174] | – | – | <1 | – | > 100 µM | – | – | > 100 µM | – | > 25 µM |
| COc1ccc([C@H]2COC(=O)C(Cc3cccc([N+](=O)[O-])c3)C2)cc1OC1CCCC1 (stereo partly drawn) [Compound 175] | – | – | <1 | 1 to 25 µM | > 100 µM | – | – | – | 1 to 10 µM | – |
| COc1ccc([C@@H]2CCC(=O)OC2)cc1OC(C)C [Compound 155] | – | – | <1 | 1 to 25 µM | > 100 µM | 0.1 to 1 µM | – | – | 1 to 10 µM | – |
| COc1ccc([C@H]2COC(=O)C(Cc3cccc(O)c3)C2)cc1OC (stereo partly drawn) [Compound 131] | < 1 µM | – | – | 1 to 25 µM | > 100 µM | – | – | – | – | – |
| COc1ccc([C@H]2COC(=O)C(Cc3ccc(OCc4ccccc4)c(OC)c3)C2)cc1OC (stereo partly drawn) [Compound 22] | – | – | <1 | 1 to 25 µM | > 100 µM | – | – | > 100 µM | – | – |
| COc1ccc([C@H]2COC(=O)C(Cc3ccccc3)C2)cc1OC (stereo partly drawn) [Compound 139] | – | – | – | 1 to 25 µM | > 100 µM | – | – | > 100 µM | – | – |
| COc1ccc([C@@H]2CCC(=O)N(Cc3ccccc3)C2)cc1OC [Compound 47] | – | 10 to 100 µM | – | 1 to 25 µM | – | – | – | – | 1 to 10 µM | – |
| COc1ccc([C@H]2COC(=O)C(Cc3ccc(O)cc3)C2)cc1OC (stereo partly drawn) [Compound 133] | < 1 µM | – | <1 | 1 to 25 µM | > 100 µM | – | – | – | – | – |
| COc1ccc([C@H]2COC(=O)C(Cc3ccc(F)c(F)c3)C2)cc1OC (stereo partly drawn) [Compound 77] | – | 10 to 100 µM | – | 1 to 25 µM | – | – | – | > 100 µM | – | – |
| C=C(C)COc1cc([C@@H]2CCC(=O)OC2)ccc1OC [Compound 156] | < 1 µM | – | 1 | – | > 100 µM | 0.1 to 1 µM | – | – | – | – |

From patent US20030186943A1, “Substituted gamma-phenyl-delta-lactams and uses related thereto” (Inflazyme Pharmaceuticals Ltd., priority 1998, published 2003)
